Tests used:
[1] = target: T1, interaction between PD-1 and PD-L1 (Homo sapiens, UniProt Q9NZQ7); test: PD1-PDL1 HTRF binding activity test; conditions: Cisbio PD-1/PD-L1 binding assay kit; percent inhibition vs DMSO
T1 construct: purchased Cisbio 64ICP01PEG or 64ICP01PEH
Description: The effect of compounds of the examples of the present invention on the interaction between PD-1 and PD-L1 was determined by the PD-1/PD-L1 binding assay kit from Cisbio (#64ICP01PEG or 64ICP01PEH). The detailed experimental process was as follows:
1) Pre-diluted compound solution, 4 μL of Tag1-PD-L1 and 4 μL of Tag2-PD1 were added to each well of a 384-well plate;
2) After the mixture was incubated at room temperature for 15 min, 5 μL of anti-Tag1-Eu3+ antibody and 5 μL of anti-Tag2-XL665 antibody were then added;
3) After incubated for 2 hrs at room temperature or overnight at 4° C., plates were read on Envision of Perkin Elmer; and readings at 665 nm and 620 nm were recorded, and the ratio of the two readings was taken as a reading for each well;
4) The reading of each well after compound treatment was compared with the reading of DMSO treated wells to obtain the percent inhibition of the compound; and
5) IC50 values of compounds of the examples of the present invention were determined by non-linear regression analysis of percent inhibition at different compound concentrations.

[2] = target: T2, interaction between PD-1 and PD-L1 expressed on cell surfaces (Jurkat/NF-κB-luc/PD1 cells cocultured with Raji-PD-L1 cells) (Homo sapiens, UniProt Q9NZQ7); test: Jurkat reporter gene cellular assay; type: cell-based; conditions: OKT3 1 μg/mL stimulation, 6 hrs, activation fold vs DMSO
T2 construct: expressed in transfected cells; host or cells: Raji cells (PD-L1); Jurkat cells (PD-1, NF-κB-luc reporter)
T2 sequence (Q9NZQ7 19-290): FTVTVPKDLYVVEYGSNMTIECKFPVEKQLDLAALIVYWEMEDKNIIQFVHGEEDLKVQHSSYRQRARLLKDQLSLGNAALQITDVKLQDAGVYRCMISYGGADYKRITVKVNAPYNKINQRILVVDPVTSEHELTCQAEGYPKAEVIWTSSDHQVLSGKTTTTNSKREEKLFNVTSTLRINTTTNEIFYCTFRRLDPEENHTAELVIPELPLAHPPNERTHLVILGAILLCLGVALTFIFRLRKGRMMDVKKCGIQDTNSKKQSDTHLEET
Description: The effect of compounds of the examples of the present invention on the interaction between PD-1 and PD-L1 expressed on cell surfaces, and the related influence on T cell functions, were determined by a Jurkat reporter gene cellular assay.
Briefly, the reporter gene plasmid of NF-κB-luc and the plasmid of human PD-1 were transfected into Jurkat cells to establish a stably transfected cell line capable of stably expressing both PD-1 and NF-κB-Luc reporter genes; the expression level of PD-1 on the cell surface was confirmed by flow cytometry; and the expression of the reporter gene was confirmed via the response of the reporter gene stimulated by OKT-3 and Raji cells.
In addition, the plasmid of human PD-L1 was transfected into Raji cells to obtain a cell line capable of stably expressing PD-L1. Jurkat/NF-κB-luc/PD1 cells and Raji-PD-L1 cells were then cocultured and stimulated with OKT-3. On this basis, the compounds were added, and the enhancement of the signal pathway of T cell activation by the inhibitory effect of the compounds on the interaction between PD-1 and PD-L1 was evaluated by readings of reporter gene responses. The specific experimental process was as follows:
1) 30 μL of compound or antibody solution was added to each well of a white 96-well plate (Corning, 3610) at different diluted concentrations, and 10 μL of OKT3 (Biolegend, 317326) was then added (the final concentration of OKT3: 1 μg/mL);
2) 20 μL of Raji-PD-L1 cell suspension was added to each well with 5*10^4 cells for each well, and was incubated in an incubator for 20 min;
3) 20 μL of Jurkat/NF-Kb-luc/PD-1 cell suspension was added to each well with 5*10^4 cells for each well, and was well mixed, and 6 hrs later, Bright-glo (Promega, E2620) was applied and plates were read on Envision;
4) The reading of each well treated with the compound was compared with the reading of each well treated with DMSO to obtain the activation fold of the compound; and
5) EC50 values of compounds of the examples of the present invention were determined by non-linear regression analysis of activation folds at different compound concentrations.

T1 sequence (Q9NZQ7 19-238 limits assumed): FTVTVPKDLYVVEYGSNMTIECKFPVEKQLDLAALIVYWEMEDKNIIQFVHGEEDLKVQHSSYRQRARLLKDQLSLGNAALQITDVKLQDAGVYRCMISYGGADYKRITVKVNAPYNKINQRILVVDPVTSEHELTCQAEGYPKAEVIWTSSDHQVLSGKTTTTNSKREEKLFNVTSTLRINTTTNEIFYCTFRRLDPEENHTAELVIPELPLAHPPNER

Compound | IC50 [1] | EC50 [2]
Cc1c(NC(=O)c2cc(C3CC3)c(CN[C@@H](C)CO)cn2)cccc1-c1cccc(NC(=O)c2cc(C3CC3)c(CN[C@H](CO)C(=O)O)cn2)c1C [Example 39, ((4-cyclopropyl-6-((3′-(4-cyclopropyl-5-((((S)-1-hydroxypropan-2-yl)amino)methyl)picolinamido)-2,2′-dimethyl-[1,1′-biphenyl]-3-yl)carbamoyl)pyridin-3-yl)methyl)-D-serine] | 1.89 nM | 36 nM
CCOC(=O)[C@@H](CO)NCc1cnc(C(=O)Nc2cccc(-c3cccc(NC(=O)c4cc(C5CC5)c(CN[C@@H](C)CO)cn4)c3C)c2C)cc1C1CC1 [Example 39-1, Ethyl ((4-cyclopropyl-6-((3′-(4-cyclopropyl-5-((((S)-1-hydroxypropan-2-yl)amino)methyl)picolinamido)-2,2′-dimethyl-[1,1′-biphenyl]-3-yl)carbamoyl)pyridin-3-yl)methyl)-D-serinate] | 3.22 nM | 264 nM
Cc1c(NC(=O)c2cc(C3CC3)c(CN[C@H]3CCC[C@@H]3O)cn2)cccc1-c1cccc(NC(=O)c2cc(C3CC3)c(CN[C@H](CO)C(=O)O)cn2)c1C [Example 40, ((4-cyclopropyl-6-((3′-(4-cyclopropyl-5-((((1S,2S)-2-hydroxycyclopentyl)amino)methyl)picolinamido)-2,2′-dimethyl-[1,1′-biphenyl]-3-yl)carbamoyl)pyridin-3-yl)methyl)-D-serine] | 1.68 nM | 39.2 nM
Cc1c(NC(=O)c2cc(C3CC3)c(CNC3CCOCC3)cn2)cccc1-c1cccc(NC(=O)c2cc(C3CC3)c(CN[C@H](CO)C(=O)O)cn2)c1C [Example 51, ((4-cyclopropyl-6-((3′-(4-cyclopropyl-5-(((tetrahydro-2H-pyran-4-yl)amino)methyl)picolinamido)-2,2′-dimethyl-[1,1′-biphenyl]-3-yl)carbamoyl)pyridin-3-yl)methyl)-D-serine] | 2.05 nM | 87.1 nM
Cc1c(NC(=O)c2cc(C3CC3)c(CN[C@H](CO)C(=O)O)cn2)cccc1-c1cccc(NC(=O)c2cc(C3CC3)c(CN3CC[C@@H](O)C3)cn2)c1C [Example 53, ((4-cyclopropyl-6-((3′-(4-cyclopropyl-5-(((R)-3-hydroxypyrrolidin-1-yl)methyl)picolinamido)-2,2′-dimethyl-[1, 1′-biphenyl]-3-yl)carbamoyl)pyridin-3-yl)methyl)-D-serine] | 3.61 nM | 86.8 nM
CCOC(=O)[C@@H](CO)NCc1cnc(C(=O)Nc2cccc(-c3cccc(NC(=O)c4cc(C5CC5)c(CN5CC[C@@H](O)C5)cn4)c3C)c2C)cc1C1CC1 [Example 53-1, Ethyl ((4-cyclopropyl-6-((3′-(4-cyclopropyl-5-(((R)-3-hydroxypyrrolidin-1-yl)methyl)picolinamido)-2,2′-dimethyl-[1,1′-biphenyl]-3-yl)carbamoyl)pyridin-3-yl)methyl)-D-serinate] | 5.77 nM | 258 nM
Cc1c(NC(=O)c2cc(C3CC3)c(CN[C@H](CO)C(=O)O)cn2)cccc1-c1cccc(NC(=O)c2cc(C3CC3)c(CN3CCC[C@H]3CO)cn2)c1C [Example 54] | 0.91 nM | 62.3 nM
Cc1c(NC(=O)c2cc(C3CC3)c(CN[C@H](CO)C(=O)O)cn2)cccc1-c1cccc(NC(=O)c2cc(C3CC3)c(CN3CCC[C@@H]3CO)cn2)c1C [Example 55] | 3.18 nM | 99.5 nM
Cc1c(NC(=O)c2cc(C3CC3)c(CN[C@@](C)(CO)C(=O)O)cn2)cccc1-c1cccc(NC(=O)c2cc(C3CC3)c(CN[C@@](C)(CO)C(=O)O)cn2)c1C [Example 67, (2S,2′S)-2,2′-((((((2,2′-dimethyl-[1,1′-biphenyl]-3,3′-diyl)bis(azanediyl))bis(carbonyl))bis(4-cyclopropylpyridine-6,3-diyl))bis(methylene))bis(azanediyl))bis(3-hydroxy-2-methylpropanoic acid)] | 0.61 nM | 19.7 nM
